Results from PubChem BioAssay (NCI).
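Results reflect a 48-hour exposure of cells in 96-well plates to compound at five concentrations. GI50: concentration for 50% inhibition of growth. TGI: total growth inhibition.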

Columns and labels:
Assay in all cases: growth of human tumour cells (NCI), 48 h
[1] = test system: A498 renal
[2] = test system: OVCAR-4 ovarian
[3] = test system: CAKI-1 renal
[4] = test system: CCRF-CEM leukemia
[5] = test system: U251 CNS
[6] = test system: OVCAR-5 ovarian
[7] = test system: DU-145 prostate
[8] = test system: SNB-19 CNS
[9] = test system: SN12C renal
[10] = test system: IGROV1 ovarian
[11] = test system: LOX IMVI melanoma
[12] = test system: HCT-15 colon
[13] = test system: M14 melanoma
[14] = test system: NCI-H522 lung
[15] = test system: NCI-H23 lung
[16] = test system: HT29 colon
[17] = test system: MDA-MB-231 breast
[18] = test system: A549 NSCLC
[19] = test system: ACHN renal
[20] = test system: K-562 leukemia
[21] = test system: RXF 393 renal
[22] = test system: HS 578T breast
[23] = test system: MDA-N
[24] = test system: NCI-H226 lung
[25] = test system: BT-549 breast
[26] = test system: SW-620 colon
[27] = test system: SF-268 CNS
[28] = test system: UO-31 renal
[29] = test system: SK-MEL-5 melanoma
[30] = test system: EKVX NSCLC
[31] = test system: MALME-3M melanoma
[32] = test system: SK-MEL-2 melanoma
[33] = test system: NCI/ADR-RES ovarian
[34] = test system: HCT-116 colon
[35] = test system: MDA-MB-435
[36] = test system: 786-0 renal
[37] = test system: TK-10 renal
[38] = test system: SR leukemia
[39] = test system: SNB-75 CNS
[40] = test system: OVCAR-8 ovarian
[41] = test system: T-47D breast
[42] = test system: SF-295 CNS
[43] = test system: MOLT-4 leukemia
[44] = test system: OVCAR-3 ovarian
[45] = test system: SK-MEL-28 melanoma
[46] = test system: UACC-62 melanoma
[47] = test system: KM12 colon
[48] = test system: HOP-62 NSCLC
[49] = test system: PC-3 prostate
[50] = test system: HOP-92 NSCLC

Cc1cc[c]([Sb]2[O]C(CO)C(C(O)C(O)C(=O)O)[O]2)cc1 (centres undefined)
GI50 [1]: 32.3 µM
TGI [1]: 99.7 µM
GI50 [2]: > 100 µM
TGI [2]: > 100 µM
GI50 [3]: > 100 µM
TGI [3]: > 100 µM
GI50 [4]: > 100 µM
TGI [4]: > 100 µM
GI50 [5]: 29.1 µM
TGI [5]: > 100 µM
GI50 [6]: 29.2 µM
TGI [6]: 75.2 µM
GI50 [7]: 38.5 µM
TGI [7]: > 100 µM
GI50 [8]: 60.6 µM
TGI [8]: > 100 µM
GI50 [9]: 51.9 µM
TGI [9]: > 100 µM
GI50 [10]: > 100 µM
TGI [10]: > 100 µM
GI50 [11]: 39.9 µM
TGI [11]: > 100 µM
GI50 [12]: > 100 µM
TGI [12]: > 100 µM
GI50 [13]: 90 µM
TGI [13]: > 100 µM
GI50 [14]: 42.7 µM
TGI [14]: > 100 µM
GI50 [15]: > 100 µM
TGI [15]: > 100 µM
GI50 [16]: 46.4 µM
TGI [16]: > 100 µM
GI50 [17]: 78 µM
TGI [17]: > 100 µM
GI50 [18]: 35.3 µM
TGI [18]: > 100 µM
GI50 [19]: > 100 µM
TGI [19]: > 100 µM
GI50 [20]: 46.5 µM
TGI [20]: > 100 µM
GI50 [21]: 28.2 µM
TGI [21]: 84.7 µM
GI50 [22]: 87.7 µM
TGI [22]: > 100 µM
GI50 [23]: 43.5 µM
TGI [23]: > 100 µM
GI50 [24]: 39.9 µM
TGI [24]: > 100 µM
GI50 [25]: > 100 µM
TGI [25]: > 100 µM
GI50 [26]: > 100 µM
TGI [26]: > 100 µM
GI50 [27]: > 100 µM
TGI [27]: > 100 µM
GI50 [28]: > 100 µM
TGI [28]: > 100 µM
GI50 [29]: > 100 µM
TGI [29]: > 100 µM
GI50 [30]: 41 µM
TGI [30]: > 100 µM
GI50 [31]: > 100 µM
TGI [31]: > 100 µM
GI50 [32]: 21.4 µM
TGI [32]: 45.5 µM
GI50 [33]: > 100 µM
TGI [33]: > 100 µM
GI50 [34]: 33.7 µM
TGI [34]: > 100 µM
GI50 [35]: 81.7 µM
TGI [35]: > 100 µM
GI50 [36]: 38.4 µM
TGI [36]: > 100 µM
TGI [37]: 0.58 µM
GI50 [38]: 47.2 µM
TGI [38]: > 100 µM
GI50 [39]: 23 µM
TGI [39]: 76.8 µM
GI50 [40]: > 100 µM
TGI [40]: > 100 µM
GI50 [41]: > 100 µM
TGI [41]: > 100 µM
GI50 [42]: 61.1 µM
TGI [42]: > 100 µM
GI50 [43]: 78.7 µM
TGI [43]: > 100 µM
GI50 [44]: > 100 µM
TGI [44]: > 100 µM
GI50 [45]: 39.6 µM
TGI [45]: > 100 µM
GI50 [46]: > 100 µM
TGI [46]: > 100 µM
GI50 [47]: 46.7 µM
TGI [47]: > 100 µM
GI50 [48]: 45.2 µM
TGI [48]: > 100 µM
GI50 [49]: 57.7 µM
TGI [49]: > 100 µM
GI50 [50]: > 100 µM
TGI [50]: > 100 µM
